From the METLIN SMRT retention time set (Domingo-Almenara et al. 2019)

Experiment: gradient 5% acetonitrile 3 min, to 50% in 2 min, to 85% in 15 min, held 3 min, 100 µL/min
Details: column: Zorbax Extend-C18 2.1 x 50 mm; eluents: water / acetonitrile, 0.1% formic acid
Method in brief: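 Retention times of pure standards were taken from adduct peaks that were selected by computer and manually inspected. Over 3 months, mixtures of ~100 molecules were run by HPLC–quadrupole time-of-flight mass spectrometry in positive and negative ionization mode. The Zorbax Extend-C18 column (2.1 × 50 mm, 1.8 μm) ran at 100 μL/min in water and acetonitrile, each containing 0.1% formic acid, with 40 μL dead volume and 900 μL dwell volume.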

SMILES | RP-LC retention time
Cc1ccccc1-c1nc(-c2ccc3nncn3c2)no1 | 872 s
Fc1cccc(Cn2cc(-c3noc(-c4cccc(F)c4)n3)nn2)c1 | 1040 s
CN1CCC(N2CCN(S(=O)(=O)c3ccccc3C(F)(F)F)CC2)C1=O (centres undefined) | 594 s
CCNC(=O)N1CCc2c([nH]c3ccccc23)C12C(=O)N(C)c1ccc(Br)cc12 (centres undefined) | 857 s
COc1ccc2[nH]cc(CCN3CC(C(=O)Nc4ccccc4)CC3=O)c2c1 (centres undefined) | 748 s
Cc1ccc(NC(=O)c2cc(C(C)(C)C)n3nccc3n2)cc1 | 1320 s
Cc1ccc(-c2csc(NC(=O)c3ccc(Br)cc3)n2)c(C)c1 | 1270 s
CC(=O)Nc1ccc(C(=O)NCCNC(=O)CC(c2ccccc2)c2ccccc2)cc1 | 697 s
O=C1/C(=C/c2ccccc2)C[C@@]2(O)[C@H]3Cc4ccc(O)c5c4[C@@]2(CCN3CC2CC2)[C@H]1O5 | 724 s
CC(=O)Nc1cccc(-c2nc(-c3ccc4c(c3)oc(=O)n4C)no2)c1 | 819 s
Cc1nc(-c2cccc(-c3noc(CN4C(=O)COc5ccc(Cl)cc54)n3)c2)cs1 | 1180 s
O=C1c2ccccc2C(=O)c2nc(-c3ccccc3)c(-c3ccccc3)nc21 | 1030 s
COc1ccc(Cl)cc1NC(=O)COc1nc(C)nc2ccccc12 | 840 s
CCOc1ccc(-c2cc3c(=O)n(Cc4nc(-c5ccc6c(c5)OCO6)no4)ncn3n2)cc1 | 1100 s
Cc1ccc(C(C)NC(=O)Cn2cc(-c3noc(-c4ccc(F)cc4)n3)nc2C)cc1 (centres undefined) | 907 s
C[C@H](NC(=O)C(C)(C)Oc1ccc(C(F)(F)F)cn1)[C@@H](Cc1ccc(Cl)cc1)c1cccc(C#N)c1 | 1320 s
CCC/C(C)=C/c1ccc(CC)cn1 | 708 s
Cc1nc2ccn(Cc3cccnc3)c(=O)c2cc1C(=O)NCCc1c[nH]c2ccccc12 | 626 s
CCS(=O)(=O)N1[C@H]2CC[C@@H]1c1cnc(-c3ccc(F)cc3)nc1C2 | 945 s
Cc1cccc(NC(=O)CN2C(=O)C(C(=O)N3CCCC3)Sc3ccccc32)c1C (centres undefined) | 945 s

SMILES | RP-LC retention time
CCOc1ccc(OCC)c(NC(=O)CCc2c(-c3ccc(Cl)cc3)nc3ccccn23)c1 | 788 s
Cn1cnc2cc(CNC(=O)c3ccc4cc[nH]c4c3)ccc21 | 603 s
Cn1c(=O)c(=O)n(CC(=O)NCCc2ccco2)c2cccnc21 | 646 s
Cc1ccccc1OCC(=O)Nc1ccc2c(c1)Sc1ncccc1C(=O)N2C(C)C | 972 s
CCCS(=O)(=O)N1CCC2(CC1)CN(c1ccccc1)C2=O | 812 s
CCc1ccc(N2C(=O)C3N=NN(c4cccc(OC)c4)C3C2=O)cc1 (centres undefined) | 1020 s
O=C1CCc2cc(NS(=O)(=O)/C=C/c3ccccc3)ccc2N1 | 681 s
O=C(CN1CCN(Cc2ccccc2)C1=O)NCc1cccc(F)c1 | 761 s
COCCN1C(=O)[C@H]2CN(S(=O)(=O)c3ccccc3)C[C@H]2C1=O | 712 s
Cc1cc(C(=O)NCc2ccc3c(c2)OCO3)c2ccccc2n1 | 637 s
Cc1ccc(-c2ncccc2CNS(=O)(=O)c2ccc(Cl)cc2)cc1 | 766 s
CC(C)NC(=O)c1ccc(-c2nc3cc(NS(=O)(=O)c4ccc(F)c(F)c4)ccc3n2C)cc1 | 721 s
CCn1ccc2c(cc(C(=O)Nc3ccc(OC)c(Cl)c3)n2C)c1=O | 1330 s
CC(C(=O)NCc1cccs1)S(=O)(=O)c1ccc2c(c1)S(=O)(=O)N=CN2 (centres undefined) | 628 s
O=C(c1noc2c1CSc1ccccc1-2)N1CCN(c2ccccn2)CC1 | 719 s
CCn1cc(S(=O)(=O)Nc2ccc(F)cc2Cl)c2cccnc21 | 870 s
Cc1cccc(Nc2nnc(CC(=O)Nc3cc(F)ccc3Cl)s2)c1 | 872 s
O=C(CN1CCC2(CC1)N=C(c1ccc(F)cc1)C(=O)N2)Nc1cc(F)ccc1F | 692 s
CC(=O)c1cccc(NC(=O)N2CCCN(c3nc4ccccc4n4cccc34)CC2)c1 | 647 s
O=C(CSc1nccn1-c1cccc(Cl)c1)Nc1ccccc1C(F)(F)F | 591 s

SMILES | RP-LC retention time
COC(=O)c1ccc(NC(=O)CC(C)S(=O)(=O)c2ccc3c(c2)NC(=O)CCS3)cc1 (centres undefined) | 740 s
O=C(C1CC1)N1CCc2sc(S(=O)(=O)Nc3ccccc3Br)cc2C1 | 858 s
CCOc1ccc(C(=O)N2CCC3(C2)C(=O)N(C)c2ccc(OC)cc23)cc1 (centres undefined) | 788 s
Cc1ccc(C2CC(=O)c3cnc(Nc4nc(C)c5ccc(C)cc5n4)nc3C2)cc1 (centres undefined) | 808 s
COc1ccc(N2CCN(C(=O)c3c(C)oc4nc(C)nc(N5CCCC5)c34)CC2)cc1 | 694 s
O=C(c1ccc(Cl)cc1)N1CCCCC1CCN1CCOCC1 (centres undefined) | 637 s
CCOC(=O)c1noc2nc(C)nc(Nc3ccc(F)cc3)c12 | 962 s
CSc1nc2c(c(=O)n1-c1ccc([N+](=O)[O-])cc1)SCC2 | 816 s
CN(C)c1ccc(CCCNS(=O)(=O)c2ccc(Cl)s2)cc1 | 655 s
O=C(NCc1ccc(F)cc1)N1CCC(c2noc(-c3cnccn3)n2)C1 (centres undefined) | 705 s
CCC1CN(C(=O)Nc2ccc3c(c2)OCCO3)c2ccccc2O1 (centres undefined) | 966 s
CCOC(=O)N1CCN(C(=O)C2CCC(=O)N(c3ccc(OC)cc3)C2c2ccc(F)cc2)CC1 (centres undefined) | 726 s
Cc1ccsc1C1C2=C(CC(C)(C)CC2=O)OC2=C1C(=O)CC(C)(C)C2 | 1090 s
O=C(c1ccc(OCC2CCN(C(=O)C3CCCC3)CC2)cc1)N1CCOCC1 | 764 s
Cn1ncc2c3ccccc3n(CCCC(=O)NCCc3ccccc3)c2c1=O | 845 s
COc1ccc2c(c1)C1(CCN(C(=O)c3cccc(OC)c3OC)C1)C(=O)N2C (centres undefined) | 737 s
CN(Cc1ccccc1)C(=O)CN1C(=O)C(C(=O)N2CCCCCC2)Sc2ccccc21 (centres undefined) | 945 s
Cc1c(Cl)cccc1Nc1c(-c2ccc(N(C)C)cc2)nc2cnccn12 | 961 s
CC(C)n1cc(S(=O)(=O)Nc2ccc(F)c(F)c2)c2cccnc21 | 936 s

Second part, the molecule after the results:

RP-LC retention time | SMILES
695 s | COc1ccc(OC)c(NC(=O)Cn2c(N3CCOCC3)nc(C)cc2=O)c1
667 s | COC(=O)c1cnc2nc(C)ccc2c1Nc1cc(OC)ccc1OC
1030 s | O=C(Nc1ccccc1F)N1CCC(CCOc2ccccc2)CC1
735 s | CC(C)(C)NC(=O)N1CCC(CNC(=O)CSCc2ccccc2)CC1
775 s | CCOCCCNC(=O)C1CCN(c2cc(Sc3cc(C)ccc3C)ncn2)CC1
626 s | CC(C)n1cnnc1C1CCN(C(=O)Cc2c[nH]c3ccccc23)CC1
866 s | CCc1ccc(-n2nnc(C(=O)N3CCCCC3C)c2-c2cccnc2)cc1 (centres undefined)
684 s | Cc1sc2ccn(CC(C)C)c(=O)c2c1C(=O)NCCN1CCCCCC1
1010 s | CCCCn1cc(S(=O)(=O)NC2CCCCC2)c2cccnc21
900 s | Cc1cc(C)c(NC(=O)C2CCN(S(C)(=O)=O)c3ccccc3O2)c(C)c1 (centres undefined)
995 s | CCCS(=O)(=O)N1CC(c2nc(CCOc3cccc(C)c3)no2)C1
611 s | COCCCNC(=O)CCc1cc2cc(OC)ccc2[nH]c1=O
672 s | CC1CN(C(=O)N2CCC(C(=O)N3CCN(c4ccccn4)CC3)CC2)c2cc(Cl)ccc2O1 (centres undefined)
973 s | CCCOc1ccc(C2C(=O)N(C3CCCCC3)CC(=O)N2Cc2ccco2)cc1OC (centres undefined)
886 s | CN(C)S(=O)(=O)c1ccc(-c2nnc(C(=O)NC3CCCCC3)o2)cc1
614 s | CCc1nnc(-c2ccc3ccn(CC(=O)N4CCN(c5ccccn5)CC4)c3c2)o1
647 s | CCCNC(=O)C(=O)NCC(c1ccc2c(c1)CCCN2C)N1CCCC1 (centres undefined)
577 s | CCNC(=O)Nc1cccnc1N1CCCCC1
828 s | COc1ccc(CCNC(=O)C2CCCN(S(=O)(=O)c3ccc4c(ccn4C)c3)C2)cc1OC (centres undefined)
662 s | COc1cc2nc(N3CCC(N4CCCCC4)CC3)nc(NC3CCCCCC3)c2cc1OC
823 s | Cc1cc(OCC(=O)Nc2ccc(F)cc2)nc(N2CCN(c3ccccc3)CC2)n1
573 s | O=C(NCC1CCN(Cc2ccccc2)CC1)C(=O)Nc1ccc(F)cc1F
957 s | O=C(CSc1ncnc2c1[nH]c1ccc(Br)cc12)NC1CCCCC1
604 s | Cc1ccc(C(=O)NCc2ccc3c(c2)ncn3C)s1
656 s | CCOC[C@@H]1CC(F)(F)CN1C1CCN(Cc2ccc3cc[nH]c3c2)CC1
863 s | COc1ccc(C)cc1NC(=O)N1CCCC1c1cc(C)on1 (centres undefined)
715 s | CCOC(=O)N1CCN(C(=O)C2CCCN(c3ccc(-c4ccc(C)c(C)c4)nn3)C2)CC1 (centres undefined)
672 s | Cc1cc(=O)n(CC(=O)Nc2ccc(F)cc2Cl)c(N2CCOCC2)n1
1100 s | COc1ccc(S(=O)(=O)N2CC(C(=O)NC3CCCC3)Oc3cc(C)ccc32)cc1 (centres undefined)
616 s | Cc1cc(C(=O)NCC2CCCO2)c2cccc(C)c2n1 (centres undefined)
